This test has as its target Lactoylglutathione lyase (Saccharomyces cerevisiae). The test is described as follows: Ability to inhibit yeast glyoxalase I enzyme in 0.05 M phosphate buffer, pH 6.6, 30 degree C.

As usually defined, the Ki is a measure of affinity in units of concentration, obtained from inhibition or displacement. Molecule `NC(CNC(=O)NC(CSCc1ccc(Br)cc1)C(=O)NCC(=O)O)C(=O)O` (stereo unspecified) [2-Amino-3-{3-[2-(4-bromo-benzylsulfanyl)-1-(carboxymethyl-carbamoyl)-ethyl]-ureido}-propionic acid] came in with a Ki of 15.5 µM.
